ChEMBL document CHEMBL6134931, “Lysine-Targeted Covalent Strategy Leading to the Discovery of Novel Potent PROTAC-Based PI3Kδ Degraders” (J Med Chem, 2025)
pIC50: −log10 of the molar value. The source made the active and inactive calls. No cut-off for these calls is given here.

Key:
SU-DHL-6 [1] = assay: Antiproliferative activity against human SU-DHL-6 cells assessed as cell growth inhibition incubated for 72 hrs by MTT assay; assay type: functional
SU-DHL-6 [2] = assay: Inhibition of AKT phosphorylation in human SU-DHL-6 cells at 0.1 to 1 uM incubated for 24 hrs by Western blot analysis; assay type: cell-based; details: dose 0.1-1 µM
Pfeiffer = assay: Antiproliferative activity against human Pfeiffer cells assessed as cell growth inhibition incubated for 72 hrs by MTT assay; assay type: functional
SU-DHL-6 [3] = assay: Inhibition of AKT phosphorylation in human SU-DHL-6 cells at 1 to 10000 nM incubated for 24 hrs by Western blot analysis; assay type: cell-based; details: dose 1-10000 nM
SU-DHL-6 [4] = assay: Induction of autophagy in human SU-DHL-6 cells assessed as increase in LC3-II to LC3-I ratio at 1 to 100 nM incubated for 24 hrs by Western blot analysis; assay type: functional, cell-based; details: dose 1-100 nM
SU-DHL-6 [5] = assay: Cell cycle arrest in human SU-DHL-6 cells assessed as increase in G1 phase cells incubated for 24 hrs by PI staining based flow cytometric analysis; assay type: functional; details: dose 0.01-1 µM
SU-DHL-6 [6] = assay: Cell cycle arrest in human SU-DHL-6 cells assessed as increase in G1 phase cells at 0.1 uM incubated for 24 hrs by PI staining based flow cytometric analysis; assay type: functional
SU-DHL-6 [7] = assay: Induction of apoptosis in human SU-DHL-6 cells assessed as viable cells at 1 uM incubated for 24 hrs by Annexin V-FITC/PI staining based flow cytometric analysis (reference value: 92.54 %); assay type: functional; details: read-out: Activity
SU-DHL-6 [8] = assay: Induction of apoptosis in human SU-DHL-6 cells assessed as early apoptotic cells at 1 uM incubated for 24 hrs by Annexin V-FITC/PI staining based flow cytometric analysis (reference value: 2.32 %); assay type: functional
SU-DHL-6 [9] = assay: Induction of apoptosis in human SU-DHL-6 cells assessed as late apoptotic cells at 1 uM incubated for 24 hrs by Annexin V-FITC/PI staining based flow cytometric analysis (reference value: 4.75 %); assay type: functional
SU-DHL-6 [10] = assay: Induction of apoptosis in human SU-DHL-6 cells assessed as necrotic cells at 1 uM incubated for 24 hrs by Annexin V-FITC/PI staining based flow cytometric analysis (reference value: 0.39 %); assay type: functional
SU-DHL-6 [11] = assay: Induction of apoptosis in human SU-DHL-6 cells assessed as viable cells at 0.01 uM incubated for 24 hrs by Annexin V-FITC/PI staining based flow cytometric analysis (reference value: 92.54 %); assay type: functional; details: read-out: Activity
SU-DHL-6 [12] = assay: Induction of apoptosis in human SU-DHL-6 cells assessed as early apoptotic cells at 0.01 uM incubated for 24 hrs by Annexin V-FITC/PI staining based flow cytometric analysis (reference value: 2.32 %); assay type: functional
SU-DHL-6 [13] = assay: Induction of apoptosis in human SU-DHL-6 cells assessed as late apoptotic cells at 0.01 uM incubated for 24 hrs by Annexin V-FITC/PI staining based flow cytometric analysis (reference value: 4.75 %); assay type: functional
SU-DHL-6 [14] = assay: Induction of apoptosis in human SU-DHL-6 cells assessed as necrotic cells at 0.01 uM incubated for 24 hrs by Annexin V-FITC/PI staining based flow cytometric analysis (reference value: 0.39 %); assay type: functional
SU-DHL-6 [15] = assay: Induction of apoptosis in human SU-DHL-6 cells assessed as viable cells at 0.1 uM incubated for 24 hrs by Annexin V-FITC/PI staining based flow cytometric analysis (reference value: 92.54 %); assay type: functional; details: read-out: Activity
SU-DHL-6 [16] = assay: Induction of apoptosis in human SU-DHL-6 cells assessed as early apoptotic cells at 0.1 uM incubated for 24 hrs by Annexin V-FITC/PI staining based flow cytometric analysis (reference value: 2.32 %); assay type: functional
SU-DHL-6 [17] = assay: Induction of apoptosis in human SU-DHL-6 cells assessed as late apoptotic cells at 0.1 uM incubated for 24 hrs by Annexin V-FITC/PI staining based flow cytometric analysis (reference value: 4.75 %); assay type: functional
SU-DHL-6 [18] = assay: Induction of apoptosis in human SU-DHL-6 cells assessed as necrotic cells at 0.1 uM incubated for 24 hrs by Annexin V-FITC/PI staining based flow cytometric analysis (reference value: 0.39 %); assay type: functional
[19] = molecular target: T1, Phosphatidylinositol 4,5-bisphosphate 3-kinase catalytic subunit delta isoform (Homo sapiens) (UniProt O00329); assay: Induction of p110delta degradation in human SU-DHL-6 cells at 1000 nM incubated for 24 hrs by Western blot analysis; assay type: cell-based
T1 sequence (whole entry): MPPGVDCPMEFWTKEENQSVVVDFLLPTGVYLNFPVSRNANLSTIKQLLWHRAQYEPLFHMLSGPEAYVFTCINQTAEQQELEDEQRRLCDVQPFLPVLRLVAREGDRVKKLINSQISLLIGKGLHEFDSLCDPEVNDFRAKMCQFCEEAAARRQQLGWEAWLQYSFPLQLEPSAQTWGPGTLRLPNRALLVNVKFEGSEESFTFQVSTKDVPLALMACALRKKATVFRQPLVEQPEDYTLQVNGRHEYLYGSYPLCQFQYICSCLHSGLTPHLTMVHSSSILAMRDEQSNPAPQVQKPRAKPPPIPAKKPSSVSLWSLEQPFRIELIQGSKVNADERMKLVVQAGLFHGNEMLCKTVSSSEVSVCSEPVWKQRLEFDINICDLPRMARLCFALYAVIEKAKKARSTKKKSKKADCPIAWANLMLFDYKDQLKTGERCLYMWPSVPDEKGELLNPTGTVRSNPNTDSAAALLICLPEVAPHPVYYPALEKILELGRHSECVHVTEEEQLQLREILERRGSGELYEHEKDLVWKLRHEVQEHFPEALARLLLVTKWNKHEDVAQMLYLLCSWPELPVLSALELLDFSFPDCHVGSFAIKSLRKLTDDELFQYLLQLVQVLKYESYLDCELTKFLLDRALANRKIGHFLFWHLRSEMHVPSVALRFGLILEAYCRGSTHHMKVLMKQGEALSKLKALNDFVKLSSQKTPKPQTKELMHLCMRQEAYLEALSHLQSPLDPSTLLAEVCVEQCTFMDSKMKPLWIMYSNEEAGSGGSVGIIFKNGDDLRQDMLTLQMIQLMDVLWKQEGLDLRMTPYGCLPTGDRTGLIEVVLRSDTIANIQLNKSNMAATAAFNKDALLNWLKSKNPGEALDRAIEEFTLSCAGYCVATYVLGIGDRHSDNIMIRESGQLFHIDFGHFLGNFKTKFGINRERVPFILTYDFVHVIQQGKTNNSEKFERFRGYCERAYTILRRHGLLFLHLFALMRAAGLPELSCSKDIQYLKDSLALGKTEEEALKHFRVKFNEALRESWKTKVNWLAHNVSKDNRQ

[20] = molecular target: von Hippel-Lindau disease tumor suppressor/Phosphatidylinositol 4,5-bisphosphate 3-kinase catalytic subunit delta isoform (Homo sapiens) (UniProt O00329+P40337); assay: PROTAC activity at VHL/p110delta in human SU-DHL-6 cells assessed as induction of p110delta degradation at 100 nM measured after 12 hrs in presence of (2S,4R)-1-((S)-2-acetamido-3,3-dimethylbutanoyl)-4-hydroxy-N-(4-(4-methylthiazol-5-yl)benzyl)pyrrolidine-2-carboxamide by Western blot analysis; assay type: cell-based
[21] = molecular target: Protein cereblon/Phosphatidylinositol 4,5-bisphosphate 3-kinase catalytic subunit alpha isoform (Homo sapiens, UniProt P42336+Q96SW2); assay: PROTAC activity at CRBN/p110alpha in human MDA-MB-231 cells assessed as induction of p110alpha degradation; assay type: cell-based
MDA-MB-231 = assay: Antiproliferative activity against human MDA-MB-231 cells; assay type: functional, cell-based
[22] = molecular target: Protein cereblon/Phosphatidylinositol 4,5-bisphosphate 3-kinase catalytic subunit gamma isoform (Homo sapiens, UniProt P48736+Q96SW2); assay: PROTAC activity at CRBN/p110gamma (unknown origin) in Acute myeloid leukemic cell; assay type: cell-based
SU-DHL-6 [23] = assay: Induction of apoptosis in human SU-DHL-6 cells assessed as viable cells at 10 uM incubated for 24 hrs by Annexin V-FITC/PI staining based flow cytometric analysis (reference value: 92.54 %); assay type: functional; details: read-out: Activity
SU-DHL-6 [24] = assay: Induction of apoptosis in human SU-DHL-6 cells assessed as early apoptotic cells at 10 uM incubated for 24 hrs by Annexin V-FITC/PI staining based flow cytometric analysis (reference value: 2.32 %); assay type: functional
SU-DHL-6 [25] = assay: Induction of apoptosis in human SU-DHL-6 cells assessed as late apoptotic cells at 10 uM incubated for 24 hrs by Annexin V-FITC/PI staining based flow cytometric analysis (reference value: 4.75 %); assay type: functional
SU-DHL-6 [26] = assay: Induction of apoptosis in human SU-DHL-6 cells assessed as necrotic cells at 10 uM incubated for 24 hrs by Annexin V-FITC/PI staining based flow cytometric analysis (reference value: 0.39 %); assay type: functional
SU-DHL-6 [27] = assay: Antitumor activity against human SU-DHL-6 cells xenografted in male nude mouse model assessed as tumor growth inhibition at 2 mg/kg, ip administered for 21 days relative to control; assay type: functional; details: SU-DHL-6, 504 h, time 21 day, read-out: TGI
[28] = molecular target: T1, Phosphatidylinositol 4,5-bisphosphate 3-kinase catalytic subunit delta isoform (Homo sapiens); details: dose 100.0 nM, time 90.0 min

Protein cereblon/Phosphatidylinositol 4,5-bisphosphate 3-kinase catalytic subunit alpha isoform, sequence (P42336 whole entry, canonical isoform): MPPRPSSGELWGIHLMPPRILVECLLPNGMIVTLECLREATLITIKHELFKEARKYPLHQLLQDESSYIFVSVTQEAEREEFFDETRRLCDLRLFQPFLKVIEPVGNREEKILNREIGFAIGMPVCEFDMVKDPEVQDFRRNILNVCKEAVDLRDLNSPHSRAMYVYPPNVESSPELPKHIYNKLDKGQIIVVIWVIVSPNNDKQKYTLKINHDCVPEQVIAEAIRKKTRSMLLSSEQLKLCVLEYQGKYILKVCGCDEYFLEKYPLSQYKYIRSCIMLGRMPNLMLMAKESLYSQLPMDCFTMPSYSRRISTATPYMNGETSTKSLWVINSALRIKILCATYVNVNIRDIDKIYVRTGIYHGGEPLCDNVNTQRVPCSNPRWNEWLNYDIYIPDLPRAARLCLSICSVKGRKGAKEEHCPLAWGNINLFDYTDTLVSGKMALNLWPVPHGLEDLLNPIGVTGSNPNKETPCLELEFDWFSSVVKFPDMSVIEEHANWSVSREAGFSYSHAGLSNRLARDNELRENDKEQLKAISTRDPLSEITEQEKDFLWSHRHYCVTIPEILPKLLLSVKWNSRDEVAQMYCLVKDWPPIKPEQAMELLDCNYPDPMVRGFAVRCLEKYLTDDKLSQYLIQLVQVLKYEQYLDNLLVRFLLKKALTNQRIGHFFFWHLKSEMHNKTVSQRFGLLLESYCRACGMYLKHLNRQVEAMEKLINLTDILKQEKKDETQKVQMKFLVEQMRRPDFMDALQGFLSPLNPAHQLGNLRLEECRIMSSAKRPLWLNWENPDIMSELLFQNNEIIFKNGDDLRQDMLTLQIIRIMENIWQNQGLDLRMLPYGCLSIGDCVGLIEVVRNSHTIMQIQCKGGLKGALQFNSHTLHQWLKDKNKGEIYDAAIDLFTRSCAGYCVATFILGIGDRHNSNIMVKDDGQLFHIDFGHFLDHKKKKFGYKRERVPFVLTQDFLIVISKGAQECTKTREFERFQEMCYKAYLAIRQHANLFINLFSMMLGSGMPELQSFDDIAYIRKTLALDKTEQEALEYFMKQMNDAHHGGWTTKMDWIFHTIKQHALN
Protein cereblon/Phosphatidylinositol 4,5-bisphosphate 3-kinase catalytic subunit alpha isoform, sequence (Q96SW2 whole entry, canonical isoform): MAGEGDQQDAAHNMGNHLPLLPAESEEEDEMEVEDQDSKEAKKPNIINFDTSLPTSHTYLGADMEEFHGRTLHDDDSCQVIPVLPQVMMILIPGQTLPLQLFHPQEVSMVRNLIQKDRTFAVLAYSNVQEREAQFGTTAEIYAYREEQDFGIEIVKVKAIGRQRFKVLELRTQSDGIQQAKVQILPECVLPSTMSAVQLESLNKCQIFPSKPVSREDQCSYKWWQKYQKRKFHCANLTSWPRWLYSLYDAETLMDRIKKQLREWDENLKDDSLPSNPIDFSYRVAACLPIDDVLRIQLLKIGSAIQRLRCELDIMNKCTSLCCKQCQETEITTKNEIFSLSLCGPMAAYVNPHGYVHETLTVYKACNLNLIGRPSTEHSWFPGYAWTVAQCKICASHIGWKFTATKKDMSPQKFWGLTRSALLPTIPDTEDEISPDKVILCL
Protein cereblon/Phosphatidylinositol 4,5-bisphosphate 3-kinase catalytic subunit gamma isoform, sequence (P48736 whole entry, canonical isoform): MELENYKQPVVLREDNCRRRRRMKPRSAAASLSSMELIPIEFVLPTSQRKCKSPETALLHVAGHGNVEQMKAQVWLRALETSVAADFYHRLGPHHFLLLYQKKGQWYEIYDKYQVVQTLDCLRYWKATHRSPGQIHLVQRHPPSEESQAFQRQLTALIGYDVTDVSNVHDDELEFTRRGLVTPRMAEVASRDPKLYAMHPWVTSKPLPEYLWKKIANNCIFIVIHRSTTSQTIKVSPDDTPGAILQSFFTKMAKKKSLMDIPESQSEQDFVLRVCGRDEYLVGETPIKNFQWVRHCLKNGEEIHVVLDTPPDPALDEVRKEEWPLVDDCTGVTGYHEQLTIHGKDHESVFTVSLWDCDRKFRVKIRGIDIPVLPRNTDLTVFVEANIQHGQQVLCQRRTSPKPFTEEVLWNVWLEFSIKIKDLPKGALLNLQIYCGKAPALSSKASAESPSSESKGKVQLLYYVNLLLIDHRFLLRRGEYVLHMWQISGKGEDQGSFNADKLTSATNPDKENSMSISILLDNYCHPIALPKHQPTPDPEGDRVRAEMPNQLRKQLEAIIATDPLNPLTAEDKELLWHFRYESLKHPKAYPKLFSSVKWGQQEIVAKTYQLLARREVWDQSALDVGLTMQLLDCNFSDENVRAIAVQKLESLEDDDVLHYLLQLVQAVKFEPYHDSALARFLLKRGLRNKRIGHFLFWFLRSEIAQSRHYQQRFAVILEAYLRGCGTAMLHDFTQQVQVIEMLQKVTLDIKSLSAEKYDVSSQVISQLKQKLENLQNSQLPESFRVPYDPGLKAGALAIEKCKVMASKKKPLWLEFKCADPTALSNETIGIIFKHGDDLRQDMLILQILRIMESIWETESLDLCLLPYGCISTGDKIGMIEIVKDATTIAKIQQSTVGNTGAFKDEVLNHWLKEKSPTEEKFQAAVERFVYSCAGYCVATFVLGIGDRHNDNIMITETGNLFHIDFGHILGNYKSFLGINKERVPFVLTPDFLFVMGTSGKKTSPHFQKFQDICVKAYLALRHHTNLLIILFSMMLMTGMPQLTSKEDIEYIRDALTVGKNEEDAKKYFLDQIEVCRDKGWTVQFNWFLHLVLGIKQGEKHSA
Protein cereblon/Phosphatidylinositol 4,5-bisphosphate 3-kinase catalytic subunit gamma isoform, sequence (Q96SW2 whole entry, canonical isoform): as the sequence (Q96SW2 whole entry, canonical isoform) above
von Hippel-Lindau disease tumor suppressor/Phosphatidylinositol 4,5-bisphosphate 3-kinase catalytic subunit delta isoform (Homo sapiens), sequence (P40337 whole entry, looked up, one chain of several, canonical isoform): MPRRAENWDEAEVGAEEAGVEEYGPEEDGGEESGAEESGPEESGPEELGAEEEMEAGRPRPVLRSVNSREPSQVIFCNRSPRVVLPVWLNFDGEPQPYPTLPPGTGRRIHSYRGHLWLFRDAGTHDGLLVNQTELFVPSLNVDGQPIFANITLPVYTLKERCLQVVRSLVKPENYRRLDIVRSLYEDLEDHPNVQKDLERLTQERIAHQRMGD

How did the GI50 (SU-DHL-6 [1]) turn out when COc1ncc(-c2ccc3ncnc(N[C@H]4CCN(C(=O)C5CCN(CCCCCCCCCC(=O)N[C@H](C(=O)N6C[C@H](O)C[C@H]6C(=O)NCc6ccc(-c7scnc7C)cc6)C(C)(C)C)CC5)C4)c3n2)cc1C(=O)Oc1ccccc1 was run?
The GI50 was 200 nM.

What about the inhibition (SU-DHL-6 [2]) of the same molecule?
Its inhibition is “Active”.

And the GI50 (Pfeiffer)?
Its GI50 is 370 nM.

What about the inhibition (SU-DHL-6 [3]) of the same molecule?
Its inhibition is “Active”.

What about the Activity (SU-DHL-6 [4]) of the same molecule?
Its Activity is “Active”.

And the Activity (SU-DHL-6 [5])?
Its Activity is “Dose-dependent-effect”.

And the Activity (SU-DHL-6 [6])?
Its Activity is “Active; More Potent Than 10 Um Idelalisib”.

What about the viability at 1 µM (SU-DHL-6 [7]) of the same molecule?
Its viability at 1 µM is 20.4%.

What about the Activity (SU-DHL-6 [8]) of the same molecule?
The Activity was 1.16%.

And the Activity (SU-DHL-6 [9])?
The Activity was 72.97%.

What about the Activity (SU-DHL-6 [10]) of the same molecule?
Its Activity is 5.5%.

What about the viability at 0.01 µM (SU-DHL-6 [11]) of the same molecule?
Its viability at 0.01 µM is 92.4%.

What about the Activity (SU-DHL-6 [12]) of the same molecule?
Its Activity is 2.73%.

What about the Activity (SU-DHL-6 [13]) of the same molecule?
Its Activity is 4.79%.

And the Activity (SU-DHL-6 [14])?
Its Activity is 0.11%.

What about the viability at 0.1 µM (SU-DHL-6 [15]) of the same molecule?
The viability at 0.1 µM was 90.1%.

What about the Activity (SU-DHL-6 [16]) of the same molecule?
The Activity was 2.29%.

What about the Activity (SU-DHL-6 [17]) of the same molecule?
Its Activity is 7.29%.

And the Activity (SU-DHL-6 [18])?
Its Activity is 0.31%.

What does the source list for COc1ncc(-c2ccc3ncnc(N[C@H]4CCN(C(=O)C5CCOCC5)C4)c3n2)cc1C(=O)Oc1ccccc1?
Activity [19]: < 20%; Activity [20]: Not active; Formation Of Ternary Complex Plays A Pivotal Factor In Degradation

Which results are given for COc1c(OCCOCCOCCCCCc2cn(CCCCCNc3cccc4c3C(=O)N(C3CCC(=O)NC3=O)C4=O)nn2)ccc2c1N=C(NC(=O)c1cnc(N)nc1)N1CCN=C21 (stereo unspecified)?
DC50 [21]: 5 nM; pIC50 (MDA-MB-231): 7.06

With Cc1cc(-c2sc(NC(=O)CCCC(=O)NCCCCCCCC(=O)Nc3cccc4c3C(=O)N(C3CCC(=O)NC3=O)C4=O)nc2C)cc2c1C(=O)N([C@H](C)C1CC1)C2 (stereo partly specified) as the molecule, how does the DC50 [22] read?
The DC50 was greater than 100 nM.

CC[C@H](Nc1ncnc2[nH]cnc12)c1nc2cccc(F)c2c(=O)n1-c1ccccc1 [IDELALISIB] was tested. Which GI50 (SU-DHL-6 [1]) did it give?
Its GI50 is 250 nM.

What about the GI50 (Pfeiffer) of the same molecule?
Its GI50 is 8550 nM.

And the viability at 1 µM (SU-DHL-6 [7])?
The viability at 1 µM was 91.7%.

And the Activity (SU-DHL-6 [8])?
Its Activity is 3.25%.

And the Activity (SU-DHL-6 [9])?
Its Activity is 4.89%.

And the Activity (SU-DHL-6 [10])?
The Activity was 0.18%.

What about the viability at 10 µM (SU-DHL-6 [23]) of the same molecule?
Its viability at 10 µM is 80.1%.

And the Activity (SU-DHL-6 [24])?
The Activity was 8.2%.

And the Activity (SU-DHL-6 [25])?
Its Activity is 11.55%.

And the Activity (SU-DHL-6 [26])?
Its Activity is 0.13%.

What about the inhibition in vivo at 2 mg/kg (SU-DHL-6 [27]) of the same molecule?
The inhibition in vivo at 2 mg/kg was 36.3%.

What about the inhibition [28] of the same molecule?
The inhibition was 81%.
